Read-outs that look alike come from different tables or passages of the source.

The values that follow come from paper PMC8845285, “Serotoninergic receptor ligands improve Tamoxifen effectiveness on breast cancer cells” (BMC Cancer, 2022).

What all share (format): cell-based, human
For experiment [1], the system named is Tamoxifen-cultured MCF7 cells. The experiment in a line: Tamoxifen-cultured MCF7 cell viability, sulforhodamine B assay. The note with it: E2 100 nM, 72 h; for further reduction of viability elicited by Tamoxifen in presence of SER: Tamoxifen 5 μM, Tamoxifen-cultured MCF7. The procedure: (§1) Cells were fixed with 50% trichloroacetic acid for at least 2 h at 4 °C, washed with distilled and de-ionized water, air-dryed and stained 30 min with 0.4% sulforhodamine B in 1% acetic acid. Unbound dye was removed and 10 mM tris-HCl solution (pH 7.5) was added to dissolve the protein-bound dye. Cell survival was assessed by optical density determination at 510 nm using a microplate reader.
To further investigate the effect of SER79 and SER68 on Tamoxifen responsiveness and CTGF expression in MCF7 cells, we obtained - by a continuous treatment of 10 days with 1 μM Tamoxifen – a cellular model less sensitive to the drug (Tamoxifen-cultured MCF7). We observed that 20 μM SER79, 20 μM and 40 μM SER68, while not 5 μM SER79, reduced viability of Tamoxifen-cultured MCF7 cells by about 40% (adjp<0.01; Fig. 8a). […] However, in the presence of 20 μM SER79, 20 μM and 40 μM SER68, Tamoxifen elicited a further 40% reduction of viability, similar to that achieved in Tamoxifen-responsive MCF7 cells (adjp<0.01; Fig. 8b).
Fig. 8 Effect of SER79 and SER68 on Tamoxifen-cultured MCF7 cells. MCF7 cells were cultured in presence of Tamoxifen (1 μM) for 10 days. Estrogen-starved MCF7 and Tamoxifen-cultured MCF7 cells (48 h) were (a-c) treated with SER79 (20 μM, 5 μM) or SER68 (40 μ, 20 μM), (b) treated with Tamoxifen (5 μM) in presence of SER79 (20 μM, 5 μM) or SER68 (40 μM, 20 μM). All treatments were carried out in presence of E2 (100 nM) for 72 h. As positive control, the cells were treated with (a-c) E2 alone or (b) E2 in absence or in presence of SER (as indicated, dotted line). a,b Cell viability was assessed by sulforhodamine B assay (see Methods). The results were reported as percentage of viable cells compared to positive control, considered as maximum viability (100%). c mRNA levels of CTGF were determined by qPCR (see Methods and Table 1). Data were normalized on Ribosomal Protein S23 (Rps23) gene as internal standard and reported as CTGF mRNA levels in Tamoxifen-cultured MCF7 relative to those in MCF7 cells (dotted line). a-c Graphs represent the mean ± SD of at least three independent triplicate experiments. * denotes statistically significant values compared with (a,b) positive control (*adjp<0.05, ** adjp<0.01) or (c) MCF7 cells (*pval<0.05); # denotes statistically significant values compared with (b) cells treated with Tamoxifen in absence of SER or (c) untreated Tamoxifen-cultured MCF7 cells (#pval<0.01, ##pval<0.0001)
(In general: Sulforhodamine B stains cellular protein and so reports cell mass.)

The next experiment deals with MCF7 cells. The experiment in a line: MCF7 cell viability, sulforhodamine B assay. The note with it: for IC50: Homo sapiens, MCF7. The procedure:
(§2) MCF7 (ER^+, PR^+, HER2^−), SKBR3 (ER^−, PR^+, HER2^+) and MDA-MB231 (ER^−, PR^−, HER2^−) human BC cells and MCF10A non-cancer breast epithelial cells were available in our laboratory. MCF7, SKBR3 and MDA-MB231 cells were cultured in DMEM, supplemented with 10% FBS, 2 mM glutamine, 100 units/ml penicillin and 100 units/ml streptomycin. MCF10A cells were cultured in MEBM, supplemented with 0.4% BPE, 0.1% hEGF, 0.1%, Insulin, 0.1% Hydrocortisone and 0.1% GA-1000. […] Treatment with SER were carried out in culture conditions. Treatment with Tamoxifen and/or SER were carried out upon 48 h estrogen starvation in phenol-red free medium supplemented with 10% Charcoal Stripped (C/S) FBS, 2 mM glutamine, 100 units/ml penicillin and 100 units/ml streptomycin.
as §1
After 48 and 72 h, cell viability was assessed by sulforhodamine B assay (see Methods).

Experiment [2] relates to CTGF. As to the kind of experiment: CTGF mRNA levels in MCF7 cells, qPCR. The note with it: E2 100 nM, 72 h, estrogen-starved MCF7; for CTGF mRNA levels lower compared with untreated cells: SER at IC50 dose. The method, then:
(§3) Total RNA was isolated from cells, quantified (NanoDrop spectrophotometer, Life Technologies, Carlsbad, CA, USA) and reverse transcribed according to the manufacturer’s instructions. Semiquantitative PCR and qPCR assays were performed according to manufacturer’s instructions for Bio-Rad T100 thermal cycler and CFX Connect Real Time system (Biorad, Hercules, CA, USA), respectively. Relative gene expression quantification was measured by 2^−ΔΔCt method normalizing for the reference sample using Rps23 (Ribosomal Protein S23) as housekeeping gene.
After 72 h, cell cycle was assessed by Propidium Iodide staining (see Methods). […] As positive control, the cells were treated with E2 and SER alone (without Tamoxifen, dotted line). After 72 h, cell viability was assessed by sulforhodamine B assay (see Methods). […] After 72 h, mRNA levels of CTGF were determined by qPCR (see Methods and Table 1). Data were normalized on Ribosomal Protein S23 (Rps23) gene as internal standard and were reported as CTGF mRNA levels in MCF7 treated with SER relative to those in untreated cells (dotted line). a-c Data represent the mean ± SD of at least three independent triplicate experiments. * denotes statistically significant values compared with (a) percentage of untreated cells in G0/G1, S and G2/M cell cycle phase (*pval<0.05,**pval<0.01), (b) positive control (*adjp<0.05,**adjp <0.01,***adjp<0.001), (c) untreated cells (pval<0.05); # denotes statistically significant values compared with cells treated with Tamoxifen in absence of SER (#pval<0.05)
Fig. 7 Effect of low doses of SER79 and SER68 on MCF7 and MCF10A cells. a Estrogen-starved MCF7 cells (48 h) were treated with Tamoxifen (5 μM) in presence of E2 (100nM) and SER79 (5 μM) or SER68 (20 μM, 5 μM). As positive control, the cells were treated with E2 and SER alone (without Tamoxifen, dotted line). After 72 h, cell viability was assessed by sulforhodamine B assay (see Methods). […] After 72 h, mRNA levels of CTGF were determined by qPCR (see Methods and Table 1). Data were normalized on Ribosomal Protein S23 (Rps23) gene as internal standard. Bars represent CTGF mRNA levels in MCF7 treated with SER relative to those in untreated cells (dotted line). c MCF10A non-cancer breast epithelial cells were treated with SER79 (5 μM) or SER68 (20 μM). After 72 h, cell viability was assessed by sulforhodamine B assay (see Methods).

Experiment [3] deals with CTGF. The experiment in a line: CTGF mRNA levels in Tamoxifen-cultured MCF7 cells, qPCR. The note with it: Tamoxifen-cultured MCF7, doses able to restore Tamoxifen responsiveness, 72 h. The method, then:
as §3
Fig. 8 Effect of SER79 and SER68 on Tamoxifen-cultured MCF7 cells. MCF7 cells were cultured in presence of Tamoxifen (1 μM) for 10 days. Estrogen-starved MCF7 and Tamoxifen-cultured MCF7 cells (48 h) were (a-c) treated with SER79 (20 μM, 5 μM) or SER68 (40 μ, 20 μM), (b) treated with Tamoxifen (5 μM) in presence of SER79 (20 μM, 5 μM) or SER68 (40 μM, 20 μM). All treatments were carried out in presence of E2 (100 nM) for 72 h. As positive control, the cells were treated with (a-c) E2 alone or (b) E2 in absence or in presence of SER (as indicated, dotted line). a,b Cell viability was assessed by sulforhodamine B assay (see Methods). The results were reported as percentage of viable cells compared to positive control, considered as maximum viability (100%). c mRNA levels of CTGF were determined by qPCR (see Methods and Table 1). […]
A general note: In qPCR the cycle at which signal appears reflects the starting amount.

A further experiment concerns SKBR3 cells. As to the kind of experiment: SKBR3 cell viability, sulforhodamine B assay. The note with it: for IC50: Homo sapiens, SK-BR-3, 72 h treatment. The method, then:
as §2, §1
Fig. 3 Effect of SER on SKBR3 cell viability. […] Cell viability was assessed, after 72 h, by sulforhodamine B assay (see Methods).

Setting [4] is: 48 h treatment, read-out: IC50 MCF7 48h.
[5] abbreviates: 72 h treatment, read-out: IC50 MCF7.

For `N#CN=C(NCCCN1CCN(C(c2ccc(F)cc2)c2ccc(F)cc2)CC1)c1ccccn1` [SER79], the “further reduction of viability elicited by Tamoxifen in presence of SER” value in experiment [1] (SER 5 μM) is listed as “No Tamoxifen effect was observed”; in experiment [1] (SER 20 μM), 40%. In addition, the “reduction of viability of Tamoxifen-cultured MCF7 cells” value in experiment [1] (SER 20 μM alone) was “about 40%”. Moreover, the “reduction of MCF7 cell viability” value in the experiment with MCF7 cells (50 μM, 72 h) is “≈ 70%”. The figures for the IC50 in the experiment with MCF7 cells (setting [4]), with MCF7 cells (setting [5]) and with SKBR3 cells were 85.1 ± 13.4 µM, 24.1 µM and 53.6 ± 10.4 µM, respectively. Besides, in the experiment on CTGF [2] (SER 5 μM), the “reduction of CTGF expression” value was “≈ 30%”. Moreover, in the experiment with CTGF [2], the “CTGF mRNA levels lower compared with untreated cells” value is on record as “≈ 60%”. Moreover, the “CTGF levels after SER compared with those in Tamoxifen-responsive MCF7 cells” value in the experiment with CTGF [3] is recorded as “similar”. Also, the “reduction of SKBR3 cell viability” value in the experiment on SKBR3 cells (50 μM, 72 h) is “≈ 50%”.
`O=C1C2C3C=CC(C3)C2C(=O)N1OCCN1CCN(c2ccc(Cl)c(Cl)c2)CC1` (stereo not drawn) [SER68]: the “reduction of viability of Tamoxifen-cultured MCF7 cells” value in experiment [1] (SER 20 μM alone) and in experiment [1] (SER 40 μM alone) was “about 40%” each time. Further, the “further reduction of viability elicited by Tamoxifen in presence of SER” value in experiment [1] (SER 20 μM) and in experiment [1] (SER 40 μM) was 40% throughout. In addition, the results for the IC50 in the experiment with MCF7 cells (setting [4]), with MCF7 cells (setting [5]) and in the experiment on SKBR3 cells were 131 ± 13.8 µM, 54.2 ± 10.2 µM and 260 ± 94.9 µM, respectively. Also, the “reduction of CTGF expression” value in the experiment on CTGF [2] (SER 20 μM) was “≈ 50%”. Also, the “CTGF mRNA levels lower compared with untreated cells” value with CTGF [2] is “≈ 80%”. Moreover, the “CTGF levels after SER compared with those in Tamoxifen-responsive MCF7 cells” value in the experiment on CTGF [3] is given as “significantly lower”.

The term IC50 denotes the concentration that gives 50% inhibition.
